Measurements as given in patent US6642258B1, “Use of central cannabinoid receptor antagonist for preparing medicines” (Sanofi-Synthelabo, priority 1999, dated 2003).

Experiments:
[1] = system: experimental allergic encephalitis (EAE) in Lewis rats; assay: Experimental allergic encephalitis (EAE) induced in Lewis rats by intraplantar MBP (fragment 68-84) in FCA; format: in vivo; conditions: administered orally or intraperitoneally from day zero of induction
[2] = system: experimental allergic encephalitis (EAE) in SjL/j mice; assay: Experimental allergic encephalitis (EAE) induced in SjL/j mice by subcutaneous PLP (fragment 139-151) in FCA plus Bordetella pertussis; format: in vivo; conditions: administered orally or intraperitoneally from day zero of induction

Cc1c(C(=O)NN2CCCCC2)nn(-c2ccc(Cl)cc2Cl)c1-c1ccc(Cl)cc1 [compound A, N-Piperidino-5-(4-chlorophenyl)-1-(2,4-dichlorophenyl)-4-methylpyrazole-3-carboxamide]
severity of the condition (paralysis of the hind quarters) [1]: statistically smaller | weight loss of the animals ([1]; compared with vehicle alone): significantly smaller | severity of the condition (paralysis of the hind quarters) [2]: statistically smaller | weight loss of the animals ([2]; compared with vehicle alone): significantly smaller
